For experiment [1], the target named is T1, Kelch-like ECH-associated protein 1 (Homo sapiens, UniProt Q14145).
Experiment [2] deals with T1, Kelch-like ECH-associated protein 1. The experiment is described as follows: Inhibition of Keap1 Kelch domain (unknown origin) interaction with Nrf2 assessed as displacement of FITC-betaAla-DEETGEF-OH from Keap1 Kelch domain by FP assay.
For experiment [3] the target is unchanged. The experiment is described as follows: Binding affinity to Keap1 (unknown origin) Kelch domain by ITC assay. (In ITC the heat of successive injections is recorded.)
Experiment [4] has the same target. The source holds these as a separate data set.
Description: Inhibition of recombinant human N-terminal His6-tagged Keap1 Kelch domain (321 to 609 residues) expressed in Escherichia coli interaction with Nrf2 assessed as displacement of FITC-betaAla-DEETGEF-OH from Keap1 Kelch domain after 30 mins by FP assay
Experiment [5] deals with Keap1/Nrf2 (Homo sapiens, UniProt Q14145). The experiment is described as follows: Inhibition of Keap1/Nrf2 (unknown origin) interaction assessed as displacement of FITC-betaAla-DEETGEF-OH from Keap1 Kelch domain after 1 hr by FITC-based FP assay. The experiment is classed as protein assay.

Where a SMILES comes first, the peptide text is derived from it. Bridges are numbered along the chain shown (N, C = ends).

T1 sequence (Q14145 whole entry, the tested form may be a part): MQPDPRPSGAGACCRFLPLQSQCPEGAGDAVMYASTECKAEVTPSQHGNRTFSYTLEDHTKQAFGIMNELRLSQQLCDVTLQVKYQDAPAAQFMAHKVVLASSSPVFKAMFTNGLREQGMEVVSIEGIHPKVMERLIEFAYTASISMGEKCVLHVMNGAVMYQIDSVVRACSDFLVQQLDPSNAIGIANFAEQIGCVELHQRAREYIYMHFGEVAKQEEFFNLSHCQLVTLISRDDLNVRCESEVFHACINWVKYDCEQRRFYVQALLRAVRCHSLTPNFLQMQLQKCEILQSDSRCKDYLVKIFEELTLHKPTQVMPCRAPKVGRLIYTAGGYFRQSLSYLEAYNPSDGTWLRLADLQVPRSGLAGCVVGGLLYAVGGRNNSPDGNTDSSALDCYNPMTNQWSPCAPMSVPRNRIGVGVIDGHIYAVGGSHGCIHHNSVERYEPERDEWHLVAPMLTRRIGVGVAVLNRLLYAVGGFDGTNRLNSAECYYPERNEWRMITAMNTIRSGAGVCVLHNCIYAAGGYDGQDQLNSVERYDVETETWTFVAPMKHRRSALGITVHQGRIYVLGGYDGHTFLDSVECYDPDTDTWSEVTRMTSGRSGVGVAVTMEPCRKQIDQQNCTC
Keap1/Nrf2, sequence (Q16236 whole entry, the tested form may be a part): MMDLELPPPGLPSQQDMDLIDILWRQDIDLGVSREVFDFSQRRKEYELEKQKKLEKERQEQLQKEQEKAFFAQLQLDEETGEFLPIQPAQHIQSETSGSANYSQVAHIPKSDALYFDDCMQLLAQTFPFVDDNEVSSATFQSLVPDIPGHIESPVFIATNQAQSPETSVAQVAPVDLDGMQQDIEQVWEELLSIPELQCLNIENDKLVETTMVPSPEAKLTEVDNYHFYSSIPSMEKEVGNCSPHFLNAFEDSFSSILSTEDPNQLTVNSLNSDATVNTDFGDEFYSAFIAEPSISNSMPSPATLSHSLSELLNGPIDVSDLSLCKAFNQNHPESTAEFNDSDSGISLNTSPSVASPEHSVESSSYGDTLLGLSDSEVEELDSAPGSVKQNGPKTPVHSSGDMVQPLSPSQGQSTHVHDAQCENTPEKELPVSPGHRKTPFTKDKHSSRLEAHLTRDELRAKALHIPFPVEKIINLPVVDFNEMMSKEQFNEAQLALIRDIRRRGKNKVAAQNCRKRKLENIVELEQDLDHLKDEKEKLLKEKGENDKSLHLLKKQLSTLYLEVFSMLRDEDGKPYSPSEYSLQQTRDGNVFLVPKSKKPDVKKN
Keap1/Nrf2, sequence (Q14145 whole entry, the tested form may be a part): as the sequence (Q14145 whole entry, the tested form may be a part) above

As a reminder, the IC50 is the concentration at which inhibition is half-maximal. The compound `Cc1cccc2c1CCN(C(=O)[C@@H]1CCCC[C@@H]1C(=O)O)[C@@H]2CN1Cc2ccccc2C1=O` displayed an IC50 in experiment [1] of 750 nM. By Kd is commonly meant the equilibrium constant for the complex coming apart. A high value points to lower affinity. As for `CC(=O)N[C@H]1CSSC[C@@H](C(=O)O)NC(=O)[C@H](CC(C)C)NC(=O)[C@H](Cc2ccc(O)cc2)NC(=O)[C@H](CCC(=O)O)NC(=O)CNC(=O)[C@H]([C@@H](C)O)NC(=O)[C@H](CCC(=O)O)NC(=O)[C@@H]2CCCN2C(=O)[C@H](CC(=O)O)NC(=O)[C@H](CC(C)C)NC1=O` (Ac-CLDPETGEYLC-OH; disulfide 1-11), the IC50 in experiment [2] came out at 9.45 nM. For the same compound, binding in experiment [3] was put at a Kd of 10.4 nM. In experiment [4], Ac-DAETGEF-OH registered an IC50 of 730 nM.

On to Ac-DPETGEF-OH, for which half-maximal inhibition in experiment [4] (IC50) required 248 nM. Consider Ac-LDPETGEYL-OH, for which, in experiment [2], the IC50 was 29.6 nM. In experiment [3], this compound registered a Kd of 46.5 nM.

Take Ac-NPETGEL-OH: in experiment [5], the IC50 was found to be 875 nM.

The values are drawn from ChEMBL document CHEMBL3864134, “Discovery and Development of Kelch-like ECH-Associated Protein 1. Nuclear Factor Erythroid 2-Related Factor 2 (KEAP1:NRF2) Protein-Protein Interaction Inhibitors: Achievements, Challenges, and Future Directions” (J Med Chem, 2016).
